Measurements as given in patent US20230265069A1, “Small Molecule Inhibitors That Block the Budding of Enveloped Viruses” (priority 2020, published 2023).
Entries after “also recorded” stand apart in the source; their conditions may differ. Like-named read-outs stand apart in the source and are kept apart here.

Assays:
[1] = system: HSV-2; experiment: HSV-2 release from infected Vero cells, plaque assay; conditions: for EC50: read-out: EC50 (μM) Inhibition of HSV-2 Budding at 24 h; for EC50 / EC50 (μM) Inhibition of HSV-2 Budding at 24 h: HSV-2 infected Vero cells, virus released into media, plaque assay; for Titer of HSV-2 Media, 24 h / Titer of HSV-2 in media + cell lysate, 24 h / Titer of HSV-2 in media, 48 h / Titer of HSV-2 Media 48 h / Total Titer HSV-2 Media + Cell Lysate, 24 h: Vero cells
[2] = system: HIV-1; conditions: 293T cells in culture; cited from earlier work
[3] = system: HSV-2; experiment: Transmission electron microscopy of HSV-2 infected Vero cells, particle counts; conditions: 24 h
Protocol: Vero cells grown on glass cover slips were infected with HSV-2 at MOI of 0.1 pfu/cell for 2 h and then treated for 24 h with 105 μM tenatoprazole or vehicle control.
(§2) Transmission electron Microscopy. Vero cells on glass cover slips were infected with HSV-2 at a MOI of 0.1 for two hours. Then 105 μM of tenatoprazole or 18 μM Ilaprazole was added and cells incubated for 24 hours. Tissue samples were fixed in 0.1 M sodium cacodylate buffer pH 7.3 containing 2% paraformaldehyde and 2.5% glutaraldehyde and post-fixed with 2% osmium tetroxide 427 in unbuffered aqueous solution. The samples were rinsed with distilled water, en bloc stained with 3% uranyl acetate, rinsed with distilled water, dehydrated in ascending grades of ethanol, transitioned with propylene oxide, embedded in the resin mixture of Embed 812 kit and cured in a 60° C. oven. Samples were sectioned on a Leica Ultracut UC6 ultramicrotome. 1 μm thick sections were collected and stained with Toluidine Blue O and 70 nm sections were collected on 200 mesh copper grids; thin sections were stained with uranyl acetate and Reynolds lead citrate. Transmission electron microscopy (TEM) was performed on a FEI Tecnai Spirit G2.

[4] = system: HSV-1; experiment: Transmission electron microscopy of HSV-1 infected Vero cells, particle counts; conditions: 18 μM ilaprazole, 24 h, HSV-1, Vero cells
Protocol: as §2

[5] = system: Vero cells; experiment: Vero cell viability, 96 AQueous One Solution cell proliferation assay; assay type: cell-based; conditions: for Cell toxicity at concentrations that block virus release: 24 h, result in words
Excerpt: (§1) Drug potency and cell toxicity. […] Cell toxicity experiments were repeated twice.

[6] = system: HIV-1; conditions: 293T cells, media, 24 h
Protocol: Effect of Ilaprazole on release of HIV-1 in vitro. […] To this end, cells were transfected with pR9-HIV-1Ba-L plasmid and release of virus into the media fraction was detected by monitoring the capsid (CA) protein (p24) via enzyme linked immunosorbent assay analysis. The drug was tested at concentrations between 0 and 240 μM and the effect of the drug on release of virus assessed (Table 4, column 2).
HIV-1 transfection of 293 T cells. 293T cells (American Type Culture Collection) were grown in a 24-well Clear Flat Bottom TC-treated Multiwell Cell Culture Plate using Dulbecco's modified Eagle's medium (Cellgro) containing fetal bovine serum (10%), 100 U/ml penicillin, 100 μg/ml streptomycin, and 292 μg/ml 1-glutamine (Cellgro). Cells were grown to 60-70% confluency at 37° C. and 5% CO2 408 prior to addition of drug treatment. Culture media was aspirated and replaced with media containing drug compound 7 hours prior to transfection of the plasmid encoding the HIV-1 genome. Transfection was done using reagent Polyethyleneimine (PEI, Polysciences). […] After 24 h and 48 h, tissue culture media was collected and passed through a 0.45-micron filter. Virus released from cells was quantified by media-associated p24 determined using fluorescently tagged CA targeting antibody (PerkinElmer) and equivalent amounts of p24 as standards.

[7] = system: HSV-1; experiment: HSV-1 release from infected Vero cells, plaque assay
[8] = molecular target: T1, Tsg101-UEV (Tsg101 amino acids 1-145) (Homo sapiens, UniProt Q99816); experiment: Fluorescence thermal shift (FTS) assay, binding to Tsg101-UEV; conditions: for Thermal shift (Tm shift) of Tsg101-UEV caused by compound: FTS dose response, result in words; for Tm shift of Tsg101 in the FTS assay on addition of DTT: with reducing agent DTT
T1 sequence (Q99816 1-145): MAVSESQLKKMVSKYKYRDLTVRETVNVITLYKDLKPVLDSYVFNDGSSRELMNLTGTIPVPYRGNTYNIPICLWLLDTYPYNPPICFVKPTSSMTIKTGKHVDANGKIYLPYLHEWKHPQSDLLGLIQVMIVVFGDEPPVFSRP
Protocol: The fluorescence-based thermal shift assay is based on the observation that a protein unfolds upon heating, exposing the hydrophobic residues within its tertiary structure. The unfolding temperature (Tm) is determined by the protein's primary sequence and solution environment. The FTS assay uses a fluorescent dye sensitive to a hydrophobic environment to probe protein stability and its modulation by small molecule ligands. The dye has a low fluorescence quantum yield when in a polar environment. Once in contact with the hydrophobic core normally buried within a folded protein that has become exposed during the thermal unfolding (melting) process, the quantum yield of the dye increases, thus providing a reporting signal. Furthermore, a protein's stability can be affected by ligand binding, resulting in an increase or decrease in its melting temperature. FTS assay uses the Tm shift upon binding of a ligand to identify hit compounds for drug discovery.
We screened chemical compounds using a fluorescence thermal shift (FTS) assay (27, 28) to identify small molecules that bind directly to a truncated form of Tsg101 (amino acids 1-145) which contains the Ubiquitin E2 variant (UEV) ubiquitin-binding domain (FIG. 1A, 1B, 1C). […] This truncated Tsg101, called Tsg101-UEV, was used because full-length Tsg101 has significant solubility issues in aqueous solution. Tsg101 is an adaptor protein and thus lacks a readily deployable functional assay, making FTS a tractable approach to identify interacting compounds. FTS monitors protein thermal denaturation using SYPRO® Orange, a dye which fluoresces when bound to hydrophobic surfaces, which allows monitoring of the changes in hydrophobic surface exposure during protein denaturation (27). Since ligand binding affects protein thermal stability, it can be detected through modulation of protein thermal denaturation (melting) as a shift in melting temperature (Tm). Tsg101-UEV has a well-defined melting curve suitable for FTS. We used the FTS assay to identify compounds that bind to Tsg101-UEV.
Fluorescence thermal shift (FTS) screening to identify small molecule binding to Tsg101-UEV. FTS using thermal shift elicited by the small molecule binding effect to protein stability. FTS monitors protein thermal denaturation using environment-sensitive dye Sypro® Orange which fluoresces when bound to hydrophobic surfaces, taking advantage of the changes in hydrophobic surface exposure in protein denaturation. Discovery of small molecule binding to target protein utilizes the observation that ligand binding affects protein thermal stability, and therefore can be detected through a shift in the protein's thermal denaturation (melting) temperature (Tm). We have employed FTS to reveal changes in thermodynamic properties of Tsg101 elicited by its interaction with a small molecule. […] A fluorescence dye Sypro® Orange (Invitrogen) was used for assay detection. The dye is excited at 473 nm and has a fluorescence emission at 610 nm. The dye binds to hydrophobic regions of a protein that are normally buried in a native protein structure. […] The Tsg101 fragment was premixed at a concentration of 2 μM with a 5× concentration of Sypro® Orange in HEPES buffer (100 mM HEPES, 150 mM NaCl, pH 7.5). Then 10 μl of the protein-dye mix was added to an assay plate and 10 to 50 nanoliters of compound, equal to 10 to 50 μM, were added with an acoustic transfer robot Echo550 (Labcyte, CA).

[9] = system: 293T cells; experiment: 293T cell viability, 96 Aqueous One reagent; assay type: cell-based
Excerpt: as §1

[10] = system: Vero cells; experiment: Vero cell toxicity, WST-1 reagent; assay type: cell-based
Excerpt: as §1

[11] = molecular target: ENO1 (Homo sapiens, UniProt P06733); experiment: FTS assay on unrelated protein ENO1; conditions: specificity control
Sequence of ENO1 (P06733 whole entry): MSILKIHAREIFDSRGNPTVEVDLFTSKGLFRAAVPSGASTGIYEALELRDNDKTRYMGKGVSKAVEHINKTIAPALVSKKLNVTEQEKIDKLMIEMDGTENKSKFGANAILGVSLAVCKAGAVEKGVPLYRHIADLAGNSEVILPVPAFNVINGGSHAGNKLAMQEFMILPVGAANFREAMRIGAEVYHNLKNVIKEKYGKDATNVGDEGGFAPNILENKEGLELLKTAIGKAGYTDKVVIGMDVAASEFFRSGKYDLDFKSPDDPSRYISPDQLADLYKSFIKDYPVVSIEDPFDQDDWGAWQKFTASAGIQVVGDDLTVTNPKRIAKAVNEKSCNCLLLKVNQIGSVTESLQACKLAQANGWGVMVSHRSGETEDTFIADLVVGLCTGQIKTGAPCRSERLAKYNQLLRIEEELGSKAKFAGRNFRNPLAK
Excerpt: (§3) Fluorescence thermal shift (FTS) screening to identify small molecule binding to Tsg101-UEV. FTS using thermal shift elicited by the small molecule binding effect to protein stability. FTS monitors protein thermal denaturation using environment-sensitive dye Sypro® Orange which fluoresces when bound to hydrophobic surfaces, taking advantage of the changes in hydrophobic surface exposure in protein denaturation. Discovery of small molecule binding to target protein utilizes the observation that ligand binding affects protein thermal stability, and therefore can be detected through a shift in the protein's thermal denaturation (melting) temperature (Tm). We have employed FTS to reveal changes in thermodynamic properties of Tsg101 elicited by its interaction with a small molecule. The recombinant Tsg101 fragment (amino acids 1-145), prepared as described above in Materials and Methods (but without label) has a thermal unfolding profile suitable for using FTS as a primary screen assay in HTS. A fluorescence dye Sypro® Orange (Invitrogen) was used for assay detection. The dye is excited at 473 nm and has a fluorescence emission at 610 nm. The dye binds to hydrophobic regions of a protein that are normally buried in a native protein structure. […] Fluorescence was detected on a real-time PCR machine CFX384 (Bio-Rad Laboratories).

[12] = molecular target: T2, MEK4 (Homo sapiens, UniProt P45985); experiment: FTS assay on unrelated protein MEK4; conditions: specificity control
T2 sequence (P45985 1-399): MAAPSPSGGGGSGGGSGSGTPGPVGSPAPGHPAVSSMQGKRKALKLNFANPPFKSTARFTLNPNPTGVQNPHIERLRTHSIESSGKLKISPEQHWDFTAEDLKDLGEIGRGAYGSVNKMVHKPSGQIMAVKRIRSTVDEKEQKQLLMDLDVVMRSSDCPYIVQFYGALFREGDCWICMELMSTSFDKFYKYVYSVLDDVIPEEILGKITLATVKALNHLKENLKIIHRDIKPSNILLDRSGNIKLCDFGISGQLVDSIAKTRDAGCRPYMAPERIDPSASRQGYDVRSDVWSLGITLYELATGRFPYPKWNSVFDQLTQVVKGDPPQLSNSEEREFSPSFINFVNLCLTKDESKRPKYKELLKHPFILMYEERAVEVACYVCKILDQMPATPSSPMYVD
Excerpt: as §3

[13] = system: DHPH; experiment: FTS assay on unrelated protein DHPH; conditions: specificity control
Excerpt: as §3

[14] = 18 μM ilaprazole, HSV-2, Vero cells
[15] = read-out: EC50, inhibition of HSV-1 release, Vero cells, 24 h, range stated jointly for HSV-1 and HSV-2
[16] = 105 tenatoprazole, HSV-2, 80 cells
[17] = Tenatoprazole 52 μM, Vero cells
[18] = Tenatoprazole 79 μM, Vero cells
[19] = Tenatoprazole 105 μM, Vero cells
[20] = Tenatoprazole 131 μM, Vero cells
[21] = Tenatoprazole 157 μM, Vero cells

Esomeprazole
EC50 [1]: 140 µM
Inhibition of release of infectious HIV-1 from 293T cells (earlier report) [2]: quantitatively inhibit

Ilaprazole
Average number of virus particles in the nucleus [3, 14]: 31 particles
Range of virus particles in the nucleus [3, 14]: 9-56 particles
Virus particles in the cytoplasm [3, 14]: 0 particles
Average number of virus particles in the nucleus [4]: 43 particles
Range of virus particles in the nucleus [4]: 15-166 particles
Virus particles in the cytoplasm [4]: 0 particles
Titer of HSV-2 Media, 24 h ([1]; Ilaprazole 4.5 μM): 1.00E+05
Titer of HSV-2 in media + cell lysate, 24 h ([1]; Ilaprazole 4.5 μM): 3.60E+07
Titer of HSV-2 in media, 48 h ([1]; Ilaprazole 4.5 μM): 2.50E+05
Titer of HSV-2 Media, 24 h ([1]; Ilaprazole 9.0 μM): 5.00E+04
Titer of HSV-2 in media + cell lysate, 24 h ([1]; Ilaprazole 9.0 μM): 4.50E+06
Titer of HSV-2 in media, 48 h ([1]; Ilaprazole 9.0 μM): 7.50E+04
Titer of HSV-2 Media, 24 h ([1]; Ilaprazole 13.5 μM): 1.00E+04
Titer of HSV-2 in media + cell lysate, 24 h ([1]; Ilaprazole 13.5 μM): 4.30E+06
Titer of HSV-2 in media, 48 h ([1]; Ilaprazole 13.5 μM): 5.50E+04
Titer of HSV-2 Media, 24 h ([1]; Ilaprazole 18.0 μM): 1.50E+03
Titer of HSV-2 in media + cell lysate, 24 h ([1]; Ilaprazole 18.0 μM): 2.00E+05
Titer of HSV-2 in media, 48 h ([1]; Ilaprazole 18.0 μM): 1.50E+03
Titer of HSV-2 Media, 24 h ([1]; Ilaprazole 22.5 μM): 1.00E+02
Titer of HSV-2 in media + cell lysate, 24 h ([1]; Ilaprazole 22.5 μM): 1.50E+04
Titer of HSV-2 in media, 48 h ([1]; Ilaprazole 22.5 μM): 3.00E+02
EC50 [1]: 3 to 9 µM
Cell toxicity at concentrations that block virus release [5]: did not observe cell toxicity
96 ® Cell Viablility OD490 nm 24 h ([5]; Ilaprazole 4.5 μM): 1.764
96 ® Cell Viablility OD490 nm 24 h ([5]; Ilaprazole 9.0 μM): 1.711
96 ® Cell Viablility OD490 nm 24 h ([5]; Ilaprazole 13.5 μM): 1.690
96 ® Cell Viablility OD490 nm 24 h ([5]; Ilaprazole 18.0 μM): 1.737
96 ® Cell Viablility OD490 nm 24 h ([5]; Ilaprazole 54 μM): 1.658
96 ® Cell Viablility OD490 nm 24 h ([5]; Ilaprazole 270 μM): 0.466
p24 pg/ml HIV ([6]; Ilaprazole 0.5 μM): 4063 pg/mL
p24 pg/ml HIV ([6]; Ilaprazole 1 μM): 3518 pg/mL
p24 pg/ml HIV ([6]; Ilaprazole 2 μM): 1652 pg/mL
p24 pg/ml HIV ([6]; Ilaprazole 5 μM): 274 pg/mL
p24 pg/ml HIV ([6]; Ilaprazole 10 μM): 178 pg/mL
Titer of HSV-1 Media, 24 h ([7]; Ilaprazole 4.5 μM, Vero cells): 2.00E+06
Titer of HSV-1 Media, 48 h ([7]; Ilaprazole 4.5 μM, Vero cells): 2.40E+06
Titer of HSV-1 in media + cell lysate, 24 h ([7]; Ilaprazole 4.5 μM, Vero cells): 7.0E+07
Titer of HSV-1 Media, 24 h ([7]; Ilaprazole 9.0 μM, Vero cells): 7.50E+04
Titer of HSV-1 Media, 48 h ([7]; Ilaprazole 9.0 μM, Vero cells): 2.50E+05
Titer of HSV-1 in media + cell lysate, 24 h ([7]; Ilaprazole 9.0 μM, Vero cells): 3.6E+06
Titer of HSV-1 Media, 24 h ([7]; Ilaprazole 13.5 μM, Vero cells): 3.20E+04
Titer of HSV-1 Media, 48 h ([7]; Ilaprazole 13.5 μM, Vero cells): 2.00E+02
Titer of HSV-1 in media + cell lysate, 24 h ([7]; Ilaprazole 13.5 μM, Vero cells): 3.8E+05
Titer of HSV-1 Media, 24 h ([7]; Ilaprazole 18.0 μM, Vero cells): 6.00E+02
Titer of HSV-1 Media, 48 h ([7]; Ilaprazole 18.0 μM, Vero cells): 0.00E+00
Titer of HSV-1 in media + cell lysate, 24 h ([7]; Ilaprazole 18.0 μM, Vero cells): 9.1E+03
Titer of HSV-1 Media, 24 h ([7]; Ilaprazole 22.5 μM, Vero cells): 1.00E+02
Titer of HSV-1 Media, 48 h ([7]; Ilaprazole 22.5 μM, Vero cells): 0.00E+00
Titer of HSV-1 in media + cell lysate, 24 h ([7]; Ilaprazole 22.5 μM, Vero cells): 7E+02
Inhibition of virus release 4 and 5 days after a single application ([7]; Vero cells, data not shown): Significant inhibition was still observed
EC50 ([7]; read-out: EC50, inhibition of HSV-1 release at 72 h, Vero cells, 72 h after a single application): 0.8 to 1.2 µM
EC50 [7, 15]: 3 to 9 µM
Thermal shift (Tm shift) of Tsg101-UEV caused by compound [8]: largest thermal shift
Tm shift of Tsg101 in the FTS assay on addition of DTT [8]: blocked by the addition of DTT; also recorded: abolishes the Tm shift
Toxicity to cells at concentrations that inhibited release of HIV-1 ([9]; 293T cells): did not detect toxicity
96 ® Cell Viability OD490 nm, 24 h ([9]; Ilaprazole 1.8 μM): 1.672
96 ® Cell Viability OD490 nm, 24 h ([9]; Ilaprazole 3.6 μM): 1.576
96 ® Cell Viability OD490 nm, 24 h ([9]; Ilaprazole 7.2 μM): 1.684
96 ® Cell Viability OD490 nm, 24 h ([9]; Ilaprazole 10.8 μM): 1.650
96 ® Cell Viability OD490 nm, 24 h ([9]; Ilaprazole 13.5 μM): 1.693
WST-1 Cell Toxicity OD440-660 nm, 24 h ([10]; Ilaprazole 4.5 μM): 1.058
WST-1 Cell Toxicity OD440-660 nm, 24 h ([10]; Ilaprazole 9.0 μM): 1.055
WST-1 Cell Toxicity OD440-660 nm, 24 h ([10]; Ilaprazole 13.5 μM): 0.950
WST-1 Cell Toxicity OD440-660 nm, 24 h ([10]; Ilaprazole 27 μM): 1.055
WST-1 Cell Toxicity OD440-660 nm, 24 h ([10]; Ilaprazole 270 μM): 0.423

Pantoprazole
EC50 (μM) Inhibition of HSV-2 Budding at 24 h [1]: inactive
Thermal shift (Tm shift) of Tsg101-UEV caused by compound [8]: smallest thermal shift
Tm shift of Tsg101 in the FTS assay on addition of DTT [8]: abolishes the Tm shift

Rabeprazole
EC50 (μM) Inhibition of HSV-2 Budding at 24 h [1]: inactive
Tm shift of Tsg101 in the FTS assay on addition of DTT [8]: abolishes the Tm shift

Tenatoprazole
Average number of virus particles in the nucleus [3, 16]: 31 particles
Virus particles in the cytoplasm [3, 16]: did not detect virus particles
Titer of HSV-2 Media 48 h ([1]; Tenatoprazole 52 μM): 1.30E+06
Titer of HSV-2 Media, 24 h ([1]; Tenatoprazole 52 μM): 6.50E+04
Total Titer HSV-2 Media + Cell Lysate, 24 h ([1]; Tenatoprazole 52 μM): 4.00E+06
Titer of HSV-2 Media 48 h ([1]; Tenatoprazole 60 μM): 5.60E+04
Titer of HSV-2 Media, 24 h ([1]; Tenatoprazole 60 μM): 1.00E+03
Total Titer HSV-2 Media + Cell Lysate, 24 h ([1]; Tenatoprazole 60 μM): 2.30E+04
Titer of HSV-2 Media 48 h ([1]; Tenatoprazole 79 μM): 4.80E+03
Titer of HSV-2 Media, 24 h ([1]; Tenatoprazole 79 μM): 2.50E+02
Total Titer HSV-2 Media + Cell Lysate, 24 h ([1]; Tenatoprazole 79 μM): 1.50E+03
Titer of HSV-2 Media 48 h ([1]; Tenatoprazole 105 μM): 1.80E+02
Titer of HSV-2 Media, 24 h ([1]; Tenatoprazole 105 μM): 0.00E+00
Total Titer HSV-2 Media + Cell Lysate, 24 h ([1]; Tenatoprazole 105 μM): 6.00E+02
Titer of HSV-2 Media, 24 h ([1]; Tenatoprazole 131 μM): 0.00E+00
Total Titer HSV-2 Media + Cell Lysate, 24 h ([1]; Tenatoprazole 131 μM): 3.00E+02
EC50 [1]: 84 µM
Cell toxicity at concentrations that block virus release [5]: nontoxic
Viability of OD 490 nm, 24 h ([5]; Tenatoprazole 52 μM): 1.724
Viability of OD 490 nm, 24 h ([5]; Tenatoprazole 60 μM): 1.759
Viability of OD 490 nm, 24 h ([5]; Tenatoprazole 79 μM): 1.742
Viability of OD 490 nm, 24 h ([5]; Tenatoprazole 105 μM): 1.777
Viability of OD 490 nm, 24 h ([5]; Tenatoprazole 131 μM): 1.714
Viability of OD 490 nm, 24 h ([5]; Tenatoprazole 200 μM): 0.872
Inhibition of release of infectious HIV-1 from 293T cells (earlier report) [2]: quantitatively inhibit
Tm shift of ENO1 [11]: did not observe a Tm shift
Titer of HSV-1 Media, 48 H [7, 17]: 1.4E+07
Titer of HSV-1 Media, 24 h [7, 17]: 2.90E+05
Titer of HSV-1 Media, 48 H [7, 18]: 8.0E+06
Titer of HSV-1 Media, 24 h [7, 18]: 1.30E+05
Titer of HSV-1 Media, 48 H [7, 19]: 5.3E+05
Titer of HSV-1 Media, 24 h [7, 19]: 5.40E+04
Titer of HSV-1 Media, 48 H [7, 20]: 3.5E+04
Titer of HSV-1 Media, 24 h [7, 20]: 2.40E+03
Titer of HSV-1 Media, 48 H [7, 21]: 1.0E+02
Titer of HSV-1 Media, 24 h [7, 21]: 1.30E+02
Drop of HSV-1 in released infectious virus ([7]; Vero cells, 24 hours after infection): 3 log
Duration of inhibition of virus release ([7]; against either virus (HSV-1, HSV-2), data not shown): began to fall off after 48 h
EC50 [7, 15]: 48 to 80 µM
Thermal shift (Tm shift) of Tsg101-UEV caused by compound [8]: dose-dependent shift in the Tm
Tm shift of Tsg101 in the FTS assay on addition of DTT [8]: abolishes the Tm shift
Tm shift of MEK4 [12]: did not observe a Tm shift
Tm shift of DHPH [13]: did not observe a Tm shift
